Laboratory results: patent publication EP4549436A1, “NOVEL INDENONE DERIVATIVES AND USES THEREOF” (Amyloid Solution Inc., priority 2022, dated 2024)

How the values were obtained:
[1] = system: Tau-RD3 (Tau repeat domain 3); experiment: Tau disaggregation test by thioflavin-T assay; format: biochemical; settings: 35 µM Tau-RD3 aggregated 24 hours at 37 °C, then compound 0-500 µM for 48 hours; concentration disaggregating 50 % compared to the control
Procedure: (§1) Each compound was dissolved in DMSO to a concentration of 10 mM. Subsequently, the compound was diluted with 6 % DMSO (in DW) and used.
(§2) Specifically, amyloid-beta and tau solutions were prepared by dissolving Aβ1-42 or Tau-RD3 (Tau repeat domain 3) monomer in DMSO to a concentration of 10 mM. Thereafter, each solution was diluted with DW to a concentration of 100 µM and stored on ice. Meanwhile, thioflavin-T was dissolved in 50 mM glycine buffer (pH 8.5) to a concentration of 5 mM. Thereafter, the resulting solution was diluted with 50 mM glycine buffer (pH 8.5) to a concentration of 5 µM and stored in a dark room while light was blocked.
(§3) Each of the amyloid-beta and tau solutions prepared according to Experimental Example 1.1 was added to a 1.5 mL microcentrifuge tube to a concentration of 50 µM or 35 µM, and then a reaction was allowed to occur therebetween at 37 °C for 24 hours. Each of the 1.5 mL microcentrifuge tubes in which amyloid-beta aggregation and tau aggregation had been completed was treated with each compound at a concentrated of 500 µM to 0 µM through serial dilution, and then a further reaction was allowed to occur therebetween at 37 °C for 48 hours. 25 µL of the reaction solution in which the reaction had been completed was added to each well of a 96-well plate for fluorescence analysis, and 75µL of the previously prepared thioflavin-T solution was added to each well. After a reaction was allowed to occur at room temperature in the dark for 5 minutes, fluorescence values were measured at excitation 450 nm and emission 485 nm by using a multi-mode microplate reader.
(§4) The fluorescence value of a group (control) treated with amyloid-beta or tau alone, followed by aggregation for 72 hours was converted into a percentage value and expressed as 100, and amyloid-beta and tau aggregates, in which aggregation had been completed upon reaction for 24 hours, were treated with each compound at each concentration and a further reaction was allowed to occur therebetween for 48 hours, and then fluorescence values thereof were measured and converted into relative values. […]

[2] = system: Aβ1-42; experiment: Amyloid-beta (Aβ) disaggregation test by thioflavin-T assay; format: biochemical; settings: 50 µM Aβ1-42 aggregated 24 hours at 37 °C, then compound 0-500 µM for 48 hours; concentration disaggregating 50 % compared to the control
Procedure: as §1, §2, §3, §4

Substance | EC50 [1] | EC50 [2]
2-(4-methoxyphenyl)-3-(5-methylthiazol-4-yl)-6-(2-phenoxyethoxy)-1H-inden-1-one [Compound 21] | 173 µM | 5.2 µM
6-(2-(4-methoxyphenoxy)ethoxy)-3-(5-methylthiazol-4-yl)-2-(4-(trifluoromethyl)phenyl)-1H-inden-1-one [Compound 32] | > 500 µM | 161 µM
6-(3-phenylpropoxy)-3-(1H-pyrazol-3-yl)-2-(pyridin-3-yl)-1H-inden-1-one [Compound 7] | 133 µM | 194 µM
